# Patent US9000027B2, “Chk1 suppresses a caspase-2 apoptotic response to DNA damage that bypasses p53, bcl-2 and caspase-3” (Dana-Farber Cancer Institute, Inc., priority 2008, dated 2015)
# Assays:
# p53^e7/e7 mutant embryos = assay: Morpholino screen for suppressors of p53^e7/e7 radioresistance (live AO assay); format: in vivo, zebrafish; conditions: p53^e7/e7, 12.5 Gy
# Method: We used morpholino antisense oligonucleotides (MOs) to knock down the expression levels of 8 zebrafish S- and G2-checkpoint kinases in p53^e7/e7 mutant embryos and assessed the ability of each knockdown to restore cell death (AO reactivity) at 7.5 hours post-IR (hpIR). We also tested several double-knockdown combinations, as well as knockdowns of non-kinase checkpoint regulators (p21^waf1/cip1 and smc1). For each knockdown, we scored a minimum of 50 embryos and quantified AO staining in at least 5 embryos. To avoid the isolation of false-positives, we adjusted the concentrations of each MO to the maximal dose compatible with normal embryonic development in the p53^e7/e7 background.
# Morpholino oligonucleotides (MOs) synthesized by Gene Tools™ LLC, were resuspended in sterile water at a concentration of 1 mM and delivered into zebrafish embryos at the one-cell stage by microinjection. […] For each previously unpublished MO, the working concentration was determined as the highest dose compatible with normal zebrafish development in the p53^e7/e7 background (maximal subtoxic concentration). […]
# Live zebrafish embryos were dechorionated in pronase (2.0 mg/mL in egg water) for 3 to 5 min and rinsed five times in egg water at 18 hpf. […] Lateral images of each zebrafish were acquired on a Zeiss Axioplan2 fluorescence microscope (5× lens), using OpenLab software and a Hammamatsu C4742-95 digital camera. […]
# MK-2 [1] = biological target: T1, MK-2 (Homo sapiens, UniProt P49137); assay: Western blot of MK-2 activity (Hsp-27 Ser82 phosphorylation) in irradiated HeLa cells; format: cell-based; design: endogenous in cells; host or cells: HeLa; conditions: irradiated HeLa cells, increasing concentrations of SB203580
# Method: Protein extract (5-60 μg) was added to 4× gel loading buffer and 10× denaturing solution (Invitrogen) in appropriate proportions, and samples were incubated at 70° C. for 10 min. Samples were run at 200V for 1 hr on a 4-12% Bis-tris gradient gel (Invitrogen). After electrophoresis, samples were transferred for 1.5 hr (350 mA) to a Nitrocellulose membrane (Millipore) using a submerged transfer apparatus (Bio-Rad). Membranes were then blocked with 5% milk in Tris-buffered saline with 0.1% tween (TBST) and probed overnight at 4° C. with the following antibodies: anti-zebrafish Chk1 (diluted 1:200), anti-zebrafish Chk2 (1:200), anti-P-Cdc2 (1:1000), anti-actin (1:2000), anti-human ATR (1:500) and Stressgen anti-human-caspase-3 (1:500) for zebrafish immunoblots; and anti-caspase-2 (1:200), Upstate anti-caspase-3 (1:500), anti-P-ATM (1:500), anti-ATM (1:500), Santa Cruz anti-human Chk1 (1:1000), Santa Cruz anti-human Chk2 (1:1000), anti-P-Chk1 (1:500), anti-P-Chk2 (1:500), anti-P-H2A.X (1:2000), anti-P-cdc25C (1:1000), anti-P-HSP27 (1:1000), anti-HSP27 (1:1000), anti-P-Cdc2 (1:1000), anti-p53 (1:1000) and anti-GAPDH (1:5000) for immunoblots of human tumor cell lysates. Detailed references for all primary antibodies can be found in the ‘Antibodies’ section elsewhere herein.
# Target sequence in this assay (P49137 whole entry): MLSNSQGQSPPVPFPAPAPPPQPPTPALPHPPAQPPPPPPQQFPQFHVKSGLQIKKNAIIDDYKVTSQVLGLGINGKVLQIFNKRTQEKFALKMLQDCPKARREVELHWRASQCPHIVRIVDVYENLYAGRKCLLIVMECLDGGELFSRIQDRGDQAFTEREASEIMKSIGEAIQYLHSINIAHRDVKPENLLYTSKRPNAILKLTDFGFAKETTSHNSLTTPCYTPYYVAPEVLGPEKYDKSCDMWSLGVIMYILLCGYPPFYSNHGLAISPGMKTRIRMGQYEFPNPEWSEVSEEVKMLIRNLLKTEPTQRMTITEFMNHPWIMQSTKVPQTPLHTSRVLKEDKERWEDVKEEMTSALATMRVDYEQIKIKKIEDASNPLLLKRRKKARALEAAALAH
# [2] = tested on: p53^e7/e7;chk1^MO embryos; assay: Epistasis analyses in irradiated p53^e7/e7;chk1^MO embryos (live AO assay); format: in vivo; conditions: 12.5 Gy
# Method: To identify such molecules, we performed in vivo epistasis analyses in zebrafish by knocking down or forcing the expression of candidate pathway contributors in p53^e7/e7;chk1^MO embryos.
# Morpholino oligonucleotides (MOs) synthesized by Gene Tools™ LLC, were resuspended in sterile water at a concentration of 1 mM and delivered into zebrafish embryos at the one-cell stage by microinjection. The injection apparatus consisted of a heat-pulled, filamentous RNAse free capillary tube positioned by a micromanipulator (Narishige™ M-125), through which the MO was pressure-injected using a nitrogen air supply controlled by a microinjector (Harvard Apparatus™ PLI-100). MOs were delivered into the yolk of embryos at the one cell stage, just below the cytoplasm. For each previously unpublished MO, the working concentration was determined as the highest dose compatible with normal zebrafish development in the p53^e7/e7 background (maximal subtoxic concentration). […] 100 ng of bcl-xl mRNA in vitro transcribed from full-length zebrafish bcl-xl cDNA cloned into pCS2 were injected as described above. All embryos were grown at 28.5° C. in egg water (5 mM NaCl, 0.17 mM KCl, 0.4 mM CaCl2 and 0.16 mM MgSO4). Knockdown efficiencies for the chk1, chk2, atm, atr, p63, casp8 and casp9 MOs at their maximal subtoxic concentrations are shown in FIG. 10. The sequences of the PCR primers used for RT-PCR-based monitoring of MO efficiencies are available upon request.
# Live zebrafish embryos were dechorionated in pronase (2.0 mg/mL in egg water) for 3 to 5 min and rinsed five times in egg water at 18 hpf. […] At 24 hpf, embryos were incubated in […] Acridine Orange (AO; Sigma A-6014) in egg water for 30 min at 28.5° C., followed by 3 quick rinses and three 10-min washes in egg water. 5-10 AO-treated embryos were anesthetized in Tricaine ([…]; 3-amino benzoic acid ethylester from Sigma, A-5040) and mounted laterally on a glass slide in warm 0.5% agarose in egg water by streaking a thin layer of the warm agarose across the surface of the slide, and gently pulling the embryos across the agar with a transfer pipette. Lateral images of each zebrafish were acquired on a Zeiss Axioplan2 fluorescence microscope (5× lens), using OpenLab software and a Hammamatsu C4742-95 digital camera. All images were then converted to 8-bit grayscale in NIH ImageJ using the Image>Type>8-bit command. Next, we cropped the images using the Polyonal Selection tool and the Image>Crop functions to include only the trunk of the animal from the head until the beginning of the yolk tube (MO screen; FIG. 1B) or along the entire spinal cord (epistasis analyses; FIGS. 6A & 6D). The area outside of the selected region of interest was cleared using the Edit>Clear Outside command to create a distinct boundary around the area of interest (this is important as it allows the area of interest to be precisely selected after applying the threshold). Next, we split the acquired images into features of interest and background using the Image>Adjust>Threshold function in NIH ImageJ. We then set the maximum threshold of each image to 255 (the lower slide bar in the Threshold window), and adjusted the minimum threshold to the optimized threshold (see below). The threshold was applied using the Black & White display option, with the following Lut options applied; Thresholded pixels to foreground color; Remaining pixels to background color and Black foreground, white background. […] Next, we re-selected the region of interest on the thresholded image, following the bounded image carefully, and analyzed the pixels of the image using the Analyze>Analyze Particles function. The Minimum Size was set to 1px, the Maximum Size was set to the maximum value of 999999 and the Masks option was selected under the Show pull-down menu. The following extended options were also selected: Display Results; Clear Results; Summarize, Size Distribution and Record Starts. […]
# casp9 = assay: MO knockdown efficiency: RT-PCR of casp9 transcripts; format: in vivo, zebrafish; conditions: maximal subtoxic MO concentration
# Excerpt: (§1) (A) Western blot of 25.5 hpf zebrafish protein lysates from non-injected and atr MO-injected embryos using an anti-human ATR antibody recognizing an internal peptide that is highly conserved in zebrafish Atr. Detection of a high molecular weight zebrafish band showing the same migration pattern as human ATR (lane 1) strongly supports crossreactivity of the antibody with zebrafish ATR (the predicted molecular weight of zebrafish ATR, 300 kDa, matches that of human ATR). […] The MO concentration used in the MO screen (FIG. 1) and epistasis analyses (FIG. 5), 0.25 mM, leads to a >50% reduction in ATR levels compared to control (compare lanes 5 with 2 and 3). (B-E) Gel migration profiles of RT-PCR products from non-injected and MO-injected embryos using primers in exons flanking the targeted exon (Table 1). All bands were excised and sequenced. […] All RT-PCRs are semi-quantitative with β-actin amplicon serving as loading control. […] Either aberrant splice product results in the occurrence of an inappropriate early stop codon (as a result of in-frame reading of the intron or of a frameshift caused by exon skipping), which is predicted to result in an early truncation of the ATM protein before the PIKK kinase domain. […] As exemplified in lane 4, this same MO concentration could lead to stronger knockdowns, but in this case the embryos could not be scored in the assay. […]
# zebrafish ATR = assay: MO knockdown efficiency: western blot of ATR levels; format: in vivo; conditions: atr MO 0.25 mM, 25.5 hpf lysates
# Excerpt: as §1
# Chk1 = biological target: T2, Chk1 (Homo sapiens, UniProt O14757); conditions: concentration initially thought to specifically inhibit Chk1; cited from earlier work
# T2 sequence (O14757 1-476): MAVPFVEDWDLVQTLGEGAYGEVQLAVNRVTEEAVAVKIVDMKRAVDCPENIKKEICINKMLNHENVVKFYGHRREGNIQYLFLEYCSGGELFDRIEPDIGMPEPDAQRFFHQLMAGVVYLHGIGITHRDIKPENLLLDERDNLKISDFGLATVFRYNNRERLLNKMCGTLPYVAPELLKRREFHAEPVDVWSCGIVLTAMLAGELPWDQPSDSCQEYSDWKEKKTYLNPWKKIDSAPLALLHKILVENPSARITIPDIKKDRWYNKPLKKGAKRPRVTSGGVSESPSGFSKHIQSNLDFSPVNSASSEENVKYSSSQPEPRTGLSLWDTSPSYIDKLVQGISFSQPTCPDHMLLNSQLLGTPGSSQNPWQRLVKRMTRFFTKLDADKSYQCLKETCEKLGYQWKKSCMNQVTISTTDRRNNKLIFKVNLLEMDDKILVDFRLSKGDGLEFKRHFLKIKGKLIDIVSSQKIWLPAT
# MK-2 [3] = biological target: T1, MK-2; conditions: concentration initially thought to specifically inhibit Chk1; cited from earlier work
# Target sequence in this assay (P49137 whole entry, species assumed): as the sequence (P49137 whole entry) above
molecule,measurement,setting,value
"chk1 mismatch MO: 5 base-pair mismatch version of chk1 MO, agCcaGagcGattatCcaatGttcg (SEQ ID NO: 12) (AGCCAGAGCGATTATCCAATGTTCG; all phosphorodiamidate morpholino (PMO))",radiosensitization of p53 mutants,p53^e7/e7 mutant embryos,failed to radiosensitize p53 mutants
C[S+]([O-])c1ccc(-c2nc(-c3ccncc3)c(-c3ccc(F)cc3)[nH]2)cc1 (centres unmarked) [SB203580],phosphorylated Hsp-27 at Ser82 versus native Hsp-27,MK-2 [1],reduction in the abundance of phosphorylated Hsp-27 at Ser82
casp9 MO: morpholino against zebrafish casp9 splice donor site (SEQ ID NO: 26) (GATGGAAAAACACACTTACGGACTG; antisense; all phosphorodiamidate morpholino (PMO)),effect on IR-induced cell death (AO labeling) of p53^e7/e7;chk1^MO embryos,[2],complete absence of effects
same,casp9 knockdown,casp9,~50%
atr MO: morpholino against zebrafish atr atg/5'UTR (SEQ ID NO: 15) (TGACATTTCTAGTCCTTGCTCCATC; antisense; all phosphorodiamidate morpholino (PMO)),reduction of the mean p53^e7/e7;chk1^MO AO response,[2],~90%
same,reduction in ATR levels compared to control,zebrafish ATR,> 50%
"CN[C@@H]1C[C@H]2O[C@@](C)([C@@H]1OC)n1c3ccccc3c3c4c(c5c6ccccc6n2c5c31)C(=O)N[C@H]4O [UCN-01, 7-hydroxystaurosporine]",Chk1 inhibition,Chk1,inhibits both Chk1 and MK-2
same,MK-2 inhibition,MK-2 [3],inhibits both Chk1 and MK-2
